Test results: patent publication EP0536419B1, “TRICYCLIC TRIAZOLE DERIVATIVES, PRODUCTION AND USE THEREOF” (TORAY INDUSTRIES, INC., priority 1991, dated 1992)
Structures can show the parent of a compound that is named as a salt. Where two headings read alike, the source gives them in different places.

How the values were obtained:
[1] = molecular target: T1, PAF receptor (Oryctolagus cuniculus, UniProt G1TEI7); test: Binding test using [3H]-PAF (PAF receptor binding test); parameters: species or system rabbit
T1 construct: Cell membrane fraction of rabbit platelets was prepared; from tissue; host or cells: rabbit platelets (cell membrane fraction)
T1 sequence (G1TEI7 1-342): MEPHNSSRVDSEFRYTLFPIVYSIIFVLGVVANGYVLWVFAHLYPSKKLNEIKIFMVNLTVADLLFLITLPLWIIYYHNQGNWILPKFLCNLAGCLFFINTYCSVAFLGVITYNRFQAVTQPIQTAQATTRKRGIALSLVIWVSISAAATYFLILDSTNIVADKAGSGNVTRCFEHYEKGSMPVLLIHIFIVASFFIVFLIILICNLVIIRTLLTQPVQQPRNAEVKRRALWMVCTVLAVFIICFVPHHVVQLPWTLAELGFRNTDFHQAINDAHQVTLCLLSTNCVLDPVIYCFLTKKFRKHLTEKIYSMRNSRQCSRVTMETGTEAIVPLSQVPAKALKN
Method: Binding Test Using [^3H]-PAF (PAF receptor binding test)
Cell membrane fraction of rabbit platelets was prepared in accordance with the method by Hwang et al (Biochemistry; 22; 4756, (1983)). In 10 mM Tris buffer containing 0.25% bovine serum albumin, 50 mg of this membrane fraction was suspended and tritium-labelled PAF [^3H]-PAF; 0.4 nM) and a test compound were added thereto. After incubating the resulting mixture at 25°C for 60 minutes, the mixture was subjected to filtration through a filter paper made of glass fibers. The filter paper was washed with cold Tris buffer three times and then transferred to a vial. A scintillator was added thereto and the dose of radioactivity was measured with a liquid scintillation counter. The inhibition rate (binding ability) of the test compound was calculated according to the following equation and IC50 values were determined by interpolation. Inhibition Rate (%) = {1 - [((A - B))/((C - B))]} x 100 [formula] (wherein A represents amount bound in the presence of the compound, B represents amount bound by non-specific binding which is the dose of [^3H]-PAF bound radioactivity in the presence of 1 µM of PAF, and C represents total amount bound which is the dose of [^3H]-PAF bound radioactivity.
As a control agent, WEB2086 (Japanese Laid-open Patent Application (Kokai) No. 65-176591) disclosed as a PAF-antagonist was used.

[2] = molecular target: rabbit platelets (Oryctolagus cuniculus, UniProt G1TEI7); test: in vitro platelet agglutination inhibition test (PAF-induced); format: cell-based; conditions: rabbit platelet-rich plasma, PAF final concentration 10 ng/ml, 37°C; read-out: PAF-Induced Platelet Aggregation IC50 (converted)
Sequence of rabbit platelets (G1TEI7 1-342): as above
Method: To determine the PAF-antagonizing property of the compounds, the PAF-induced agglutination of rabbit platelets in vitro is utilized. To obtain platelet-rich plasma (PRP), venous blood is taken from rabbit auricular vein into a plastic centrifugal tube containing 1.0% sodium citrate solution. The ratio of sodium citrate solution to blood is 1:10. The obtained citrate-containing blood is centrifuged at 70 x g (625 rpm) at room temperature for 20 minutes and the PRP in the upper layer is transferred to another plastic tube. The remaining lower layer is further centrifuged at 1500 x g (2800 rpm) for 10 minutes and the platelet poor plasma (PPP) in the upper layer is recovered. The platelet agglutination is measured by using aggregometer commercially available from Niko Bioscience, Inc. An aliquote of the PRP is poured into a cubette for measurement. Immediately thereafter, aspirin, creatinin phosphate and creatinin phosphokinase are added to final concentrations of 0.1 mM, 7 mM and 45 U/ml, respectively. Then a solution of a test compound is added and the resulting mixture is stirred at 37°C for 2 minutes. To the resultant, PAF (final concentration: 10 ng/ml) is added to induce platelet aggregation. The platelet aggregation rate is calculated from the relative maximum value in each aggregation curve taking the transmittance of PPP as the maximum aggregation (100% aggregation). Using the aggregation rate when physiological saline was added as a control, the inhibition rate which was the ratio of the aggregation rate when the test compound was added to the control was calculated and the IC50 values were determined by interpolation.

[3] = tested on: histamine; test: Histamine-antagonizing action: histamine-induced skin pigment leakage in rats; format: in vivo; conditions: Rattus norvegicus, oral, 50 mg/kg in olive oil, 1 hour before intracutaneous histamine (50 µl of 900 µM), read-out: Inhibition Rate (%) Antihistamine
Method: A suspension of a test compound in olive oil was orally administered at a dose of 50 mg/kg to each rat of the same kind as those used in 1. One hour later, physiological saline containing 1% Evans blue was intravenously administered at a dose of 3 ml/kg. Immediately thereafter, 50 µl of 900 µM histamine solution was intracutaneously administered to each rat. Thirty minutes later, the pigment in the blue-stained portion in the skin was extracted and quantified as mentioned above. Using the amount of the pigment when olive oil was administered as control, the inhibition rate which is the ratio of the amount of the pigment when the test compound was administered to the control was calculated.

[4] = tested on: passive cutaneous anaphylaxis (PCA); test: Test for antiallergic action: rat passive cutaneous anaphylaxis (PCA) reaction; format: in vivo; conditions: rats, oral, 50 mg/kg in olive oil, 1 hour before antigen challenge, read-out: Inhibition Rate (%) Anti-PCA
Method: The antiallergic action was evaluated by passive cutaneous anaphylaxis (PCA) test using rats. The test was carried out using Wister male rats having body weights of 150 - 200 g. Physiological saline containing anti-dinitrophenyl group (DNP) mouse IgE monoclonal antibody (commercially available from Seikagaku Kogyo Co., Ltd.) was intracutaneously injected in the skin of the back of each rat. Twenty three hours later, a suspension of the test compound in olive oil was orally administered at a dose of 50 mg/kg to each rat. One hour later, 0.5 ml of physiological saline containing 2 mg/ml of ovalbumin modified with dinitrophenyl hapten and 1% Evans blue were administered to each rat via femoral vein. Thirty minutes later, the rat was killed by cutting the carotid artery. The skin was peeled off and the portion stained in blue was cut out. The cut out portion was minced in […] and the pigment was extracted at 60°C for 48 hours. The minced skin was removed by centrifugation (1500 x g, 10 min.) and the absorbance at 620 nm of the supernatant was measured. Based on a preliminarily prepared calibration curve, the pigment leaked to the topical portion was quantified. As a control, olive oil alone was administered and the ratio of the amount of the pigment in test groups to the amount of the pigment in control group is expressed as inhibition rate.

[5] = tested on: PAF-induced Bronchial Hyperresponsiveness; test: PAF-induced bronchial hyperresponsiveness model in guinea pigs; format: in vivo; conditions: oral, ratio of Ach threshold value after/before PAF inhalation
Method: The test was carried out using Hartley male guinea pigs having body weights of 300 - 400 g.
Guinea pigs were retained on body plethysmo boxes without anesthesia and the respiratory resistances (Rrs) were determined by osscilation method. […] The Ach threshold value which is required for the Rrs to reach 1.5 cm H2O/ml/sec was determined. […] The Ach threshold value means the value calculated taking the value when a guinea pig is made to inhale 1000 ug/ml of Ach aerosol for 1 minute as 1 unit. The above-described operation was carried out using Animal Ast (registered trademark) commercially available from Chest M. I. Co., Ltd.
By the method of A), the bronchial responsiveness of guinea pigs, that is, the Ach threshold values were determined. Subsequently, each animal was made to inhale aerosol of 100 µg/ml of PAF solution for 10 minutes. Forty minutes after the completion of the inhalation, the bronchial responsiveness was again measured by the method of A). The bronchial hyperresponsiveness was detected based on the ratio between the Ach threshold value before and after the inhalation of PAF (Ach respiration threshold value after inhalation of PAF/Ach respiration threshold value before inhalation of […]; Post/Pre value). That is, if the bronchial hyperresponsiveness is strongly promoted, the Post/Pre value is lower than 1.0, and if it is not promoted, the Post/Pre value is about 1.0. A suspension of a test compound in olive oil was orally administered to each guinea pig and the determined Post/Pre value was compared with that of the control group to which olive oil was administered to evaluate the inhibition effect. […]

[6] = rabbit platelet membrane fraction, [3H]-PAF 0.4 nM, 25°C, 60 minutes, read-out: Receptor Binding Inhibition IC50 (converted)

Compound	IC50 [1, 6] [nM]	IC50 [2] [µM]	inhibition at 50 mg/kg [3] [%]	inhibition at 50 mg/kg [4] [%]	Post/Pre ([5]; Dose 0.1 mg/kg)	Post/Pre ([5]; Dose 0.3 mg/kg)	Post/Pre ([5]; Dose 1 mg/kg)	IC50 [1] [nM]	Post/Pre ([5]; Dose 3 mg/kg)
Cc1nnc2c(=O)n(CCCN3CCC(=C(c4ccccc4)c4ccccc4)CC3)c3ccccc3n12 [Compound 4, 4,5-dihydro-1-methyl-5-[3-[4-(diphenylmethylene)piperidin-1-yl]propyl][1,2,4]triazolo[4,3-a] quinoxalin-4(5H)-one]	2040	4.08	76	44	–	–	–	–	–
Cc1nnc2n1-c1ccccc1N(CCCN1CCN(C(c3ccc(F)cc3)c3ccc(F)cc3)CC1)C2 [Compound 45, 4,5-dihydro-1-methyl-5-[3-[4-[bis(4-fluorophenyl)methyl]piperazin-1-yl]propyl] [1,2,4]triazolo[4,3-a]quinoxaline]	622	–	43	49	–	–	–	–	–
Cc1nnc2n1-c1ccccc1N(CCCN1CCC(=C(c3ccccc3)c3ccccc3)CC1)C2 [Compound 46, 4,5-dihydro-1-methyl-5-[3-[4-(diphenylmethylene)piperidin-1-yl]propyl] [1,2,4]triazolo[4,3-a]quinoxaline]	378	–	72	65	1.14	1.64	–	–	–
Cc1nnc2n1-c1ccccc1N(CCCN1CCC(c3c[nH]c4ccccc34)CC1)C2 [Compound 49, 4,5-dihydro-1-methyl-5-[3-[4-(3-indolyl)piperidine-1-yl]propyl] [1,2,4]triazolo[4,3-a]quinoxaline]	3990	–	65	58	–	–	–	–	–
CCc1nnc2n1-c1ccccc1N(CCCN1CCC(c3c[nH]c4ccccc34)CC1)C2 [Compound 52, 1-ethyl-4,5-dihydro-5-[3-[4-(3-indolyl)piperidin-1-yl]propyl] [1,2,4]triazolo[4,3-a]quinoxaline]	7940	12.3	47	65	–	–	1.37	–	–
Cc1nnc2n1-c1ccccc1N(CCCN1CCC(Nc3nc4ccccc4n3Cc3ccc(F)cc3)CC1)C2 [Compound 73, 4,5-dihydro-1-methyl-5-[3-[4-[1-(4-fluorobenzyl)benzimidazol-2-ylamino]-piperidin-1-yl]propyl][1,2,4]triazolo[4,3-a] quinoxaline]	5630	8.17	–	–	–	–	1.18	–	–
Cc1nnc2n1-c1ccccc1N(CCCN1CCC(C(O)(c3ccc(F)cc3)c3ccc(F)cc3)CC1)C2 [Compound 75, 4,5-dihydro-1-methyl-5-[3-[4-[hydroxybis(4-fluorophenyl)methyl]piperidin-1-yl]propyl][1,2,4]triazolo[4,3-a] quinoxaline tartaric acid salt]	603	0.309	19	42	–	–	–	–	–
Cc1nnc2n(CCCN3CCN(C(c4ccccc4)c4ccccc4)CC3)c3ccccc3n12 [Compound 189, 3-methyl-9-[3-[4-(diphenylmethyl)piperazin-1-yl]propyl]-9H-[1,2,4]triazolo[4,3-a]benzimidazole dihydrochloride]	260	0.577	57	43	–	–	–	–	–
Cc1nnc2n(CCCN3CCC(c4c[nH]c5ccccc45)CC3)c3ccccc3n12.O=C(O)/C=C/C(=O)O [Compound 192, 3-methyl-9-[3-[4-(3-indolyl)piperidin-1-yl]propyl]-9H-[1,2,4]triazolo[4,3-a]benzimidazole fumaric acid salt]	1310	–	–	74	–	–	1.81	–	–
Cc1nnc2n(CCCN3CCC(C(O)(c4ccc(F)cc4)c4ccc(F)cc4)CC3)c3ccccc3n12 [Compound 199, 3-methyl-9-[3-[4-[hydroxybis(4-fluorophenyl)methyl]piperidin-1-yl]propyl]-9H-[1,2,4]triazolo[4,3-a]benzimidazole fumaric acid salt]	55.4	0.19	–	48	–	–	–	–	–
Cc1nnc2n(CCCN3CCC(c4c[nH]c5ccccc45)CC3)c3cc(Cl)ccc3n12 [Compound 205, 3-methyl-7-chloro-9-[3-[4-(3-indolyl)piperidin-1-yl]propyl]-9H-[1,2,4]triazolo[4,3-a]benzimidazole]	2910	5.15	–	–	–	–	–	–	–
Cc1nnc2n(CCCN3CCC(=C4c5ccccc5C=Cc5ccccc54)CC3)c3ccccc3n12 [Compound 206, 3-methyl-9-[3-[4-(5H-dibenzo[a,d]cyclohepten-5-ylidene)piperidin-1-yl]propyl]-9H-[1,2,4]triazolo[4,3-a]benzimidazole]	1810	4.32	–	–	–	–	–	–	–
Cc1nnc2n1-c1ccccc1N(CCCN1CCN(C(c3ccccc3)c3ccc(Cl)cc3)CC1)CC2 (stereo not drawn) [Compound 214, 5,6-dihydro-1-methyl-6-[3-[4-[(4-chlorophenyl)phenylmethyl]piperazin-1-yl]propyl]-4H[1,2,4]triazolo[4,3-a][1,5]benzodiazepine fumaric acid salt]	–	6.22	–	75	–	–	–	–	–
Cc1nnc2n1-c1sc(CCC(=O)N3CCOCC3)cc1C(c1ccccc1Cl)=NC2 [WEB2086, reference compound]	–	–	–	–	–	–	–	110	0.89
